Laboratory results published in US9351950B2, “Method for preventing or treating allergic disease using capsiate or salt thereof” (CATHOLIC UNIVERSITY OF KOREA INDUSTRY-ACADEMIC COOPERATION …, priority 2014, dated 2016).

How the values were obtained:
[1] = tested on: atopic dermatitis induced by 2,4-dinitro-1-fluorobenzene (DNFB) in mice; assay: Atopic dermatitis induced by DNFB in mice, histological staining and epidermal thickness; type: in vivo; conditions: 1 mM capsiate in acetone coated 1 hour before DNFB treatment
Protocol: (§1) DNFB was sensitized by being diluted to 0.15% with a vehicle in which acetone and olive oil are mixed in a ratio of 3:1. Atopic dermatitis was induced by treating twice with a 0.2% DNFB solution. The capsiate-treated group was coated with 1 mM capsiate dissolved in acetone, 1 hour before DNFB treatment (See FIG. 5).
After being cut with induced atopic dermatitis, the skin tissue was fixed in 4% formaldehyde for 24 hours, followed by washing and dehydration, and then a […] skin section was prepared using a paraffin block. The tissue section was deparaffinized with xylene, immerged in alcohol, and then stained with hematoxyline and eosin. After the staining, the tissue was observed using a phase contrast microscope. As for the dermal thickness, the dermal thicknesses at five places on the tissue image were measured, and the mean and standard deviation thereof were obtained and shown on a graph.

[2] = tested on: BMCC induced with IgE antigen; assay: Pro-inflammatory cytokine expression (real-time PCR) in BMCC induced with IgE antigen; type: cell-based, mouse
Excerpt: The inflammatory cytokine expression inhibitory effect of capsiate was verified in BMCC induced with IgE antigen. The transcript expressions of cytokines IL-1β, IL-6, and TNF-α were verified through real-time PCR. Real-time PCR conditions were established by the same method as in example <1-2> above, and the primer set was purchased from QIAGEN.

[3] = tested on: activated mouse bone marrow derived mast cells (BMMCs); assay: ELISA of cytokines in activated BMMCs; type: cell-based; conditions: 50 μM, 37° C., 16 hours
Protocol: (§2) Bone marrow cells were obtained from tibias and femurs of approximately 8 to 10 week old C57/BL/6 mice and cultured in RPMI 1640 media supplemented with 10% FCS, 100 U/ml of penicillin, 100 μg/ml of streptomycin in the presence of mIL-3 (10 ng/ml) and mSCF (50 ng/ml) for 6 weeks in an incubator containing 5% CO2 at 37° C. […] BMMC were activated by 1 μg/ml of anti-mouse DNP-IgE for overnight, followed by the treatment with 10 ng/ml of DNP-HSA for 6 hr to 24 hr.
(§3) In order to understand the inhibitory effect of capsiate on the increase of cytokines in activated BMMCs, BMMCs were treated with 50 μM of capsiate at 37° C. for 16 hours, and the expression levels of cytokines IL-6 and TNF-α were confirmed through ELISA assay. Capture antibody for IL-6 or TNF-α was added in ELISA plate and incubated overnight 4° C. Next day, the capture antibody was washed with PBS/Tween buffer, and blocking buffer was added. After 1 hr incubation at room temperature, the blocking buffer was washed out and standard or sample supernatant was added. The plate was incubated overnight at 4° C. and washed out. After washing, detection antibody for IL-6 and TNF-α was added and incubated for 1 hr at room temperature, followed by washing the plate. Streptavidin-HRP was added to each well, incubated at room temperature for 30 mins, and then the plate was washed. TMB was used as a substrate. After TMB was added to the plate, stop solution was added to stop color development, and the plate was read using ELISA reader.

[4] = tested on: atopic dermatitis sites of mice; assay: Chemokine expression (real-time PCR) in mouse atopic dermatitis sites; type: in vivo; conditions: atopic dermatitis site, 1 mM capsiate, dosing as in example 3-1
Protocol: as §1
(§4) The chemokine inhibitory effect of capsiate in atopic dermatitis sites of mice was verified. The dosing concentrations of DNFB and capsiate were the same as in example <3-1> above, and the transcript expressions of chemokines CCL11, CCL17, and CCL22 were confirmed through real-time PCR. Real-time PCR conditions were established by the same method as in example <1-2> above, and the primer set was purchased from QIAGEN.

[5] = tested on: activated human mast cell line (HMC-1 cells); assay: ELISA of cytokines in activated HMC-1 cells; type: cell-based; conditions: 50 μM, 37° C., 16 hours
Protocol: as §3, with “HMC-1 cells were grown in IMDM media supplemented with 100 U/ml of penicillin, 100 µg/ml of streptomycin, and 10% heat-inactivated FBS in an incubator containing 5% CO2 at 37° C. HMC-1 cells were activated by treatment with A23187 and PMA In order” for “In order”, “in activated HMC-1 cells, HMC-1 cells were treated” for “in activated BMMCs, BMMCs were treated”, “of capsiate and capsaicin at 37°” for “of capsiate at 37°”, “Capture antibody was added” for “Capture antibody for IL-6 or TNF-α was added”, “detection antibody was added” for “detection antibody for IL-6 and TNF-α was added”

[6] = tested on: passive cutaneous anaphylaxis (PCA); assay: Passive cutaneous anaphylaxis (PCA): capillary vessel permeability and mouse ear thickness; type: in vivo
Protocol: The passive cutaneous anaphylaxis inhibitory effect of capsiate was verified by measuring capillary vessel permeability and mouse ear thickness. The capillary vessel permeability was verified by intravenously injecting Evan's blue, which is a blue staining agent, mixed with antigen, and quantifying the staining agent coming out from ear capillary vessels to the skin tissue. The quantification was conducted by cutting the ear tissue, putting the cut ear tissue in formamide, performing incubation at 65° C. for 16 hours, extracting Evan's blue in the ear tissue, and measuring the absorbance. The mouse ear thickness was measured using D15 ear thickness gauge.

[7] = tested on: Th2 cell differentiation, spleen; assay: Th2 cell differentiation in spleen of atopic dermatitis mouse model; type: in vivo, mice; conditions: spleen cells; intracellular staining CD4, IL-4, IL-5; dosing as in example 3-1
Protocol: as §1
(§5) After the spleen was taken out from mice, a single cell suspension was prepared, and then 3 μg/ml of anti-CD28 antibody was added in the plate to which anti-CD3 antibody adheres, followed by incubation for 3 days. On the third day, PMA (20 ng/ml) and ionomycin (1 μM) were added, followed by incubation for 5 hours. The cells were collected, and then subjected to intracellular staining using Cytofix/Cytoperm kit (BD bioscience) and anti-CD4 antibody, anti-IL-4 antibody, and anti-IL-5 antibody (BD bioscience). The dosing concentrations of DNFB and capsiate were the same as in example <3-1> above.

[8] = tested on: activated human mast cell line (HMC-1 cells); assay: Real-time PCR of cytokine transcripts in activated HMC-1 cells; type: cell-based; conditions: 50 μM, 37° C., 4 hours; HMC-1 cells activated with A23187 and PMA; normalized with GAPDH
Protocol: HMC-1 cells were grown in IMDM media supplemented with 100 U/ml of penicillin, 100 µg/ml of streptomycin, and 10% heat-inactivated FBS in an incubator containing 5% CO2 at 37° C. HMC-1 cells were activated by treatment with A23187 and PMA
In order to understand the inhibitory effect of capsiate on the increase of cytokines in activated HMC-1 cells, HMC-1 cells were treated with 50 μM of capsiate and capsaicin at 37° C. for 4 hours, respectively, and the transcript expressions of cytokines IL-6 and TNF-α were confirmed through real-time PCR. Total RNA was isolated from HMC-1 cells with RNeasy Mini kit (Quiagen, Valencia, Calif., USA) and the first strand of cDNA was synthesized using QuantTect Reverse Transcription kit (Quiagen, Germany). Real-time PCR was performed using KAPA SYBR fast qPCR kit (KAPA Blosystems, Woburn, Mass., USA). The following parameters were used for the PCR: 95° C. for 10 minutes, followed by 50 cycles of 95° C. for 20 seconds, 55° C. for 30 seconds, and 72° C. for 20 seconds. The gene expression levels were normalized with GAPDH expression level. The primer sets for IL-6 and TNF-α were purchased from QIAGEN.

[9] = tested on: activated mouse bone marrow derived mast cells (BMMCs); assay: Real-time PCR of cytokine transcripts in activated BMMCs; type: cell-based; conditions: 50 μM, 37° C., 4 hours; BMMCs activated by anti-mouse DNP-IgE and DNP-HSA
Protocol: as §2
In order to understand the inhibitory effect of capsiate on the increase in cytokines in activated BMMCs, BMMCs were treated with 50 μM of capsiate at 37° C. for 4 hours, and the transcript expressions of cytokines IL-6 and TNF-α were confirmed through real-time PCR. Total RNAs were isolated from […] with RNeasy Mini kit (Quiagen, Valencia, Calif., USA) and the first strand of cDNA was synthesized using QuantTect Reverse Transcription kit (Quiagen, Germany). Real-time PCR was performed using KAPA SYBR fast qPCR kit (KAPA Blosystems, Woburn, Mass., USA). The following parameters were used for the PCR: 95° C. for 10 mins, followed by 50 cycles of 95° C. for 20 s, 55° C. for 30 s, and 72° C. for 20s. The gene expression levels were normalized with GAPDH expression level. The primer sets for IL-6 and TNF-α were purchased from QIAGEN.

serum IgE = assay: Serum IgE level (ELISA) in atopic dermatitis mouse model induced by DNFB; type: in vivo, mice
Protocol: as §1
IgE capture antibody was added in the plate, and allowed to stand at 4° C. overnight. The next day, the capture antibody was washed with PBS/Tween buffer, and blocking buffer was added, followed by reaction at room temperature for 1 hour. After the blocking buffer was washed out, IgE standard and mouse serum were added, followed by standing at 4° C. overnight. The next day, after washing was performed, the IgE detection antibody was added, followed by reaction at room temperature for 1 hour. After washing was again performed, Streptavidin-HRP was added, followed by a reaction at room temperature for 30 minutes. After washing was again performed, TMB as a substrate was added. Then, a stop solution was added, and the absorbance was measured using an ELISA reader.

[10] = tested on: Th2 cell differentiation, lymph node; assay: Th2 cell differentiation in lymph node of atopic dermatitis mouse model; type: in vivo, mice; conditions: lymph node cells; intracellular staining CD4, IL-4, IL-5; dosing as in example 3-1
Protocol: as §1
as §5, with “lymphocytes were” for “the spleen was”

[11] = tested on: atopic dermatitis sites of mice; assay: Cytokine expression (real-time PCR) in mouse atopic dermatitis sites; type: in vivo; conditions: atopic dermatitis site, 1 mM capsiate, dosing as in example 3-1
Protocol: as §1
as §4, with “The cytokine” for “The chemokine”, “capsiate was verified at” for “capsiate in”, “of mice.” for “of mice was verified.”, “of cytokines IL-4” for “of chemokines CCL11, CCL17,”, “and TSLP” for “and CCL22”

Row | SMILES | expression level of IL-6 (ELISA) [3] | expression level of TNF-α (ELISA) [3] | expression level of IL-6 (ELISA) [5] | expression level of TNF-α (ELISA) [5] | transcript expression of IL-6 (real-time PCR) [8] | transcript expression of TNF-α (real-time PCR) [8] | transcript expression of IL-6 (real-time PCR) [9] | transcript expression of TNF-α (real-time PCR) [9] | also measured
1 | COc1cc(COC(=O)CCCC/C=C/C(C)C)ccc1O [capsiate] | significantly decreased | significantly decreased | significantly decreased | significantly decreased | significantly decreased | significantly decreased | significantly decreased | significantly decreased | atopic dermatitis induced by DNFB in the mice [1]: inhibited; dermal thickness increased by DNFB ([1]; H&E stained skin section): decreased; transcript expression of IL-1β increased by IgE antigen [2]: decreased; transcript expression of IL-6 increased by IgE antigen [2]: decreased; transcript expression of TNF-α increased by IgE antigen [2]: decreased; transcript expression of CCL11 increased by DNFB [4]: decreased; transcript expression of CCL17 increased by DNFB [4]: decreased; transcript expression of CCL22 increased by DNFB [4]: decreased; capillary vessel permeability increased by DNP IgE ([6]; Evan's blue extracted from mouse ear tissue, absorbance): inhibited; ear edema increased by DNP IgE ([6]; mouse ear thickness, ear thickness gauge): inhibited; Th2 cell differentiation increased by DNFB in the spleen [7]: inhibited; level of serum IgE increased due to DNFB (serum IgE): decreased; Th2 cell differentiation increased by DNFB at the lymph node [10]: inhibited; transcript expression of IL-4 increased by DNFB [11]: decreased; transcript expression of TSLP increased by DNFB [11]: decreased
2 | COc1cc(CNC(=O)CCCC/C=C/C(C)C)ccc1O [capsaicin, reference compound] | increased | increased | increased | increased | increased | increased | increased | increased | 
